Type in all cases: in vivo
What all share (settings): albino male rats, blood 15 min after compound, 5 min after arginine

The subject of one experiment is insulin (INS). The experiment is described as follows: Suppression of insulin in arginine-stimulated, nembutal-anesthetized rats. How it is done: (§1) Albino male rats are arranged in two groups (nine rats/group) and injected i.p. with nembutal at 50 mg/kg. Fifteen minutes after the nembutal injection they are injected s.c. according to group with test compound, or physiological saline. Ten minutes later 0.5 ml. of arginine (300 mg/ml. pH 7.2) is injected into the heart. The rats are decapitated five minutes after receiving the arginine, and the blood is collected into Trasylol-EDTA. Appropriate aliquots are then assayed for growth hormone (GH), glucagon (GLUN), and insulin (INS). […] Comparisons between control and experimental values are statistically evaluated by the analysis of variants method and statistical significance (p) at 0.05 or lower is used as the index of activity.

A further experiment relates to growth hormone (GH). As to the kind of experiment: Suppression of growth hormone in arginine-stimulated, nembutal-anesthetized rats. On the procedure: as §1
For a further experiment, the system named is glucagon (GLUN). The experiment is described as follows: Suppression of glucagon in arginine-stimulated, nembutal-anesthetized rats. How it is done:
as §1

Positions of bridges follow the written chain, without caps; N, C: chain ends. Non-standard residues stand in square brackets, D forms with d. Residues, ends and D or L forms follow the SMILES beside them.

As to `C[C@@H](O)[C@@H]1NC(=O)[C@H](Cc2ccccc2)NC(=O)[C@H]([C@@H](C)O)NC(=O)[C@H](CCCCN)NC(=O)[C@@H](Cc2c[nH]c3ccccc23)NC(=O)[C@H](Cc2ccccc2)NC(=O)[C@H](Cc2ccccc2)NC(=O)[C@H](Cc2c[nH]cn2)NC(=O)[C@H](CCCNC(=N)N)NC(=O)[C@@H](N)CSSC[C@@H](C(=O)O)NC(=O)[C@H](CO)NC1=O` [Example 2, L-Cysteinyl-L-Arginyl-L-Histidyl-L-Phenylalanyl-L-Phenylalanyl-D-Tryptophyl-L-Lysyl-L-Threonyl-L-Phenylalanyl-L-Threonyl-L-Seryl-L-Cysteine Cyclic (1-12) Disulfide] (H-CRHFF[dW]KTFTSC-OH; disulfide 1-12), the INS plasma level came to 52 ± 16 μU/ml with insulin (INS) (Experiment 1, 100 μg/kg s.c., saline control 177 ± 19) and 238 ± 72 μU/ml in the experiment with insulin (INS) (Experiment 2, 10 μg/kg s.c., saline control 262 ± 26). Further, the GH plasma level came out at 61 ng/mL in the experiment with growth hormone (GH) (Experiment 1, 100 μg/kg s.c., saline control 257 ± 49) and 71 ± 21 ng/mL with growth hormone (GH) (Experiment 2, 10 μg/kg s.c., saline control 131 ± 43). For the same compound, the GLUN plasma level in the experiment with glucagon (GLUN) (Experiment 1, 100 μg/kg s.c., saline control 61 ± 9) came out at 0 ± 0 pg/mL; in the experiment with glucagon (GLUN) (Experiment 2, 10 μg/kg s.c., saline control 42 ± 6), 4 ± 3 pg/mL.
